From patent publication US20080318993A1 (Endo Pharmaceuticals, Inc., priority 2007, published 2008)
“And” between values parts separate entries of the source, which are not always exact repeats. Identical values can stand only once. Like-named read-outs stand apart in the source and are kept apart here.

Experiments:
[1] = Example 5: urinary excretion of oxymorphone and metabolites in hepatic impairment vs healthy controls; conditions: for mean amount excreted in the urine: percent of administered dose, through 120 hours
Source text: (§1) While in the clinic, the subjects were to refrain from strenuous physical activity.

[2] = orally administered (oral solution), hydrochloride, cited from earlier work
[3] = Example 5: plasma pharmacokinetics of EN3202 20 mg in hepatic impairment vs healthy controls; conditions: for AUC / AUC(0-t) / Cmax / Tmax / half-life: human, plasma, oral, 20 mg; for AUC(0-t): AUCT; for Tmax: median (range); for increase in average AUC relative to controls: arithmetic means; for AUC increase relative to healthy controls / Cmax increase relative to healthy controls: log-transformed comparison
Description: as §1
All study medications were supplied by the sponsor. […] A single 20 mg dose EN3202 was administered following an overnight fast (from approximately 22:00 on the evening prior to dose administration) at approximately 08:00, and participants were not allowed to eat until at least four hours after the dose.
All doses were administered with 240 mL of ambient water. Participants were instructed to drink all of the water.
Pharmacokinetic parameters were calculated using model-independent methods.
All pharmacokinetic results are summarized using appropriate descriptive statistics. […] One-way ANOVA was conducted using the model PKVAR=group, where group was mild hepatic impairment, moderate-severe hepatic impairment, or healthy control. Point estimates of the impaired versus control group differences and the corresponding 90% confidence limits were constructed.

[4] = 10 mg oral dose, cited from earlier work
[5] = moderate-severe hepatic impairment
[6] = Moderate-Severe Impairment, mean (SD)
[7] = Subject 006 (Child-Pugh Class B)
[8] = Subject 007 (Child-Pugh Class A)
[9] = Subject 009 (Child-Pugh Class B)
[10] = Subject 010 (Child-Pugh Class B)
[11] = Subject 011 (Child-Pugh Class C)

For `CN1CC[C@]23c4c5ccc(O)c4O[C@H]2C(=O)CC[C@@]3(O)[C@H]1C5.Cl` [Oxymorphone, 14-hydroxydihydromorphinone hydrochloride], which “urinary excretion essentially complete by” value ([1]; after single 20 mg dose) is on record?
The value was “by the end of the 48 to 72 hour collection interval”.

What about the “mean amount excreted in the urine” value ([1]; control group) of the same compound?
The value was 0.5%.

And the “administered dose excreted unchanged in the urine” value ([1]; discussion statement)?
Its value is “Less than 1%”.

And the “mean amount excreted in the urine” value ([1]; mild hepatic impairment)?
The value was 1.2%.

What about the “increase in the amount excreted in the urine” value [1, 5] of the same compound?
Its value is “approximately 8 fold”.

And the “mean amount excreted in the urine” value [1, 5]?
Its value is 4.1%.

And the “oral / average absolute bioavailability” value [2]?
The value was “about 10%”.

What about the “oral / average absolute bioavailability” value ([2]; listed as oxymorphone) of the same compound?
Its value is “approximately 10%”.

And the λz ([3]; Healthy Controls, mean (SD))?
The λz was 0.0970 (0.0540) hr^−1.

And the CL/F ([3]; Healthy Controls, mean (SD), hydrochloride)?
Its CL/F is 21.15 (13.54) L/min.

And the CL/F ([3]; Healthy Controls, mean (SD), listed as oxymorphone, hydrochloride)?
Its CL/F is 21.15 L/min.

And the CL/F ([3]; Mild Impairment, mean (SD))?
Its CL/F is 13.30 (5.81) L/min.

And the λz ([3]; Mild Impairment, mean (SD))?
Its λz is 0.0830 (0.0392) hr^−1.

And the CL/F [3, 6]?
The CL/F was 7.17 (5.08) L/min.

What about the λz [3, 6] of the same compound?
Its λz is 0.0970 (0.0365) hr^−1.

What about the CL/F [3, 7] of the same compound?
Its CL/F is 7.34 L/min.

And the CL/F [3, 8]?
Its CL/F is 4.45 L/min.

And the CL/F [3, 9]?
Its CL/F is 1.38 L/min.

And the CL/F [3, 10]?
Its CL/F is 7.63 L/min.

What about the CL/F [3, 11] of the same compound?
Its CL/F is 1.33 L/min.

What about the AUC ([3]; AUC, Healthy Controls, mean (SD), single 20 mg EN3202, fasting) of the same compound?
The AUC was 20.6 ng·h/mL.

And the AUC ([3]; AUC, Mild Impairment, mean (SD), single 20 mg EN3202, fasting)?
The AUC was 32.1 ng·h/mL.

And the AUC ([3]; AUC, Moderate-Severe Impairment, mean (SD), single 20 mg EN3202, fasting)?
The AUC was 106 ng·h/mL.

What about the AUC ([3]; AUC, Subject 006 (Child-Pugh Class B)) of the same compound?
Its AUC is 45.4 ng·h/mL.

And the AUC ([3]; AUC, Subject 007 (Child-Pugh Class A))?
The AUC was 74.8 ng·h/mL.

And the AUC ([3]; AUC, Subject 009 (Child-Pugh Class B))?
The AUC was 241 ng·h/mL.

What about the AUC ([3]; AUC, Subject 010 (Child-Pugh Class B)) of the same compound?
Its AUC is 43.7 ng·h/mL.

And the AUC ([3]; AUC, Subject 011 (Child-Pugh Class C))?
The AUC was 250 ng·h/mL.

And the AUC(0-t) ([3]; Healthy Controls, mean (SD))?
Its AUC(0-t) is 18 ng·h/mL.

What about the AUC(0-t) ([3]; Mild Impairment, mean (SD)) of the same compound?
The AUC(0-t) was 30 ng·h/mL.

And the AUC(0-t) [3, 6]?
The AUC(0-t) was 104 ng·h/mL.

And the Cmax ([3]; Healthy Controls, mean (SD))?
The Cmax was 1.73 ng/mL.

And the Cmax ([3]; Mild Impairment, mean (SD))?
Its Cmax is 3.98 ng/mL.

And the Cmax [3, 6]?
The Cmax was 9.16 ng/mL.

What about the Cmax [3, 7] of the same compound?
The Cmax was 4.31 ng/mL.

And the Cmax [3, 8]?
The Cmax was 11.4 ng/mL.

And the Cmax [3, 9]?
Its Cmax is 19.6 ng/mL.

And the Cmax [3, 10]?
The Cmax was 3.72 ng/mL.

And the Cmax [3, 11]?
The Cmax was 23.6 ng/mL.

And the Cmax ([3]; range among subjects, control group)?
The Cmax was 0.64 to 2.83 ng/mL.

And the Cmax ([3]; range among subjects, mild impairment)?
Its Cmax is 0.86 to 11.4 ng/mL.

And the Cmax ([3]; range among subjects, moderate-severe impairment)?
The Cmax was 1.66 to 23.6 ng/mL.

What about the AUC ([3]; Individual AUC results, range, healthy controls) of the same compound?
Its AUC is 6.18 to 33.9 ng·h/mL.

What about the AUC ([3]; Individual AUC results, range, subjects with mild impairment) of the same compound?
Its AUC is 15.3 to 74.8 ng·h/mL.

What about the AUC ([3]; Individual AUC results, range, subjects with moderate-severe impairment) of the same compound?
Its AUC is 24.9 to 250 ng·h/mL.

And the Tmax ([3]; Healthy Controls)?
The Tmax was 3.5 h.

And the Tmax ([3]; Mild Impairment)?
Its Tmax is 1.75 h.

What about the Tmax ([3]; Moderate-Severe Impairment) of the same compound?
Its Tmax is 1.5 h.

And the half-life ([3]; T½, Healthy Controls, mean (SD))?
Its half-life is 9.98 h.

And the half-life ([3]; T½, Mild Impairment, mean (SD))?
Its half-life is 11.8 h.

And the half-life ([3]; T½, Moderate-Severe Impairment, mean (SD))?
The half-life was 8.04 h.

And the AUC ([3]; mean AUC after excluding Subject 007, mild group)?
The AUC was 23.6 ng·h/mL.

What about the AUC ([3]; median AUC, control group) of the same compound?
Its AUC is 23.8 ng·h/mL.

And the AUC ([3]; median AUC, mildly-impaired group)?
The AUC was 24.7 ng·h/mL.

What about the half-life ([3]; plasma elimination half-life, Subject 009) of the same compound?
Its half-life is 6.96 h.

And the half-life ([3]; plasma elimination half-life, Subject 011)?
Its half-life is 10.7 h.

And the “increase in average AUC relative to controls” value ([3]; mild hepatic impairment)?
Its value is “approximately 1.56 fold”.

And the “AUC increase relative to healthy controls” value ([3]; mild hepatic impairment)?
Its value is 1.52 fold.

And the “elimination rate constant ratio, 90% confidence limits” value ([3]; mild impairment)?
The value was 0.58-1.31.

And the “elimination rate constant, ratio to healthy controls” value ([3]; mild impairment)?
Its value is 0.87.

And the “Cmax increase relative to healthy controls” value ([3]; mild impairment)?
The value was 1.68 fold.

What about the “elimination rate constant ratio, 90% confidence limits” value ([3]; moderate-severe impairment) of the same compound?
Its value is 0.74-1.66.

What about the “elimination rate constant, ratio to healthy controls” value ([3]; moderate-severe impairment) of the same compound?
The value was 1.11.

And the “increase in average AUC relative to controls” value ([3]; moderate-severe impairment)?
Its value is 5.13 fold.

What about the “Cmax increase relative to healthy controls” value ([3]; moderate-severe impairment) of the same compound?
Its value is 3.41 fold.

What about the “AUC increase relative to healthy controls” value ([3]; moderate-to-severe hepatic impairment, hydrochloride) of the same compound?
Its value is 3.61 fold and 3,6 fold.

And the “AUC increase in individual subjects” value ([3]; two of six subjects with moderate or severe liver disease)?
The value was “up to 10 fold”.

What about the “recovery in the first 24 hours, of the amount recovered” value [4] of the same compound?
Its value is 82%.

What about the “recovery in the first 24 hours, of the dose” value [4] of the same compound?
The value was roughly 42%.

What about the “unchanged oxymorphone recovered in the urine” value [4] of the same compound?
The value was 1.9%.

And the “administered dose recovered in the urine” value ([4]; 120-hour collection interval, 10 healthy subjects, average)?
Its value is 49%.

And the “Conjugated oxymorphone, average of the administered dose” value ([4]; urine)?
Its value is 44.1%.
